Patent US20090227674A1, “Combination methods fo saha and targretin for treating cancer” (priority 2005, published 2009)

Test system: HH cells (CTCL cells; ATCC)
Test: ViaLight Plus viability/proliferation assay, Vorinostat and Targretin combination
Format: cell-based
Protocol: Data from these assays was used to determine the range of combination concentrations. Both compounds were combined at concentrations close to their IC50 values. Subsequent combination viability/proliferation assays were performed using the ViaLight Plus protocol.
Costar white with clear bottom 96 well plates (#3603) were seeded with 25,000 cells per well in a volume of 100 μL/well of growth media for each time point. HH cell line growth media included RPMI (GIBCO #) with 10% FBS (GIBCO # SV30014.03), 1% Glutamax (GIBCO # 35050-061), and 1% Penicillin/Streptomycin (GIBCO # 30-002). […] For the fixed ratio method, compounds were combined and diluted together serially. […] For each treatment concentration, 25 μL of the appropriate dilution for each compound was added to the corresponding wells. Wells on the outer perimeter of the plate were not used. At each time-point, plates were read using the ViaLight Plus protocol. Luminescence was read using the Victor V plate reader.

| Structure (SMILES) | decrease in viability (HH cell line, 0.60 μM Targretin alone (FIG. 1A)) | cytotoxicity at 0.37 µM (Homo sapiens, HH, read-out: decrease in cell viability) |
| --- | --- | --- |
| C=C(c1ccc(C(=O)O)cc1)c1cc2c(cc1C)C(C)(C)CCC2(C)C [Targretin®, 4-[1-(5,6,7,8-Tetrahydro-3,5,5,8,8-pentamethyl-2-naphthalenyl)ethenyl]benzoic acid] | ~40% | – |
| O=C(CCCCCCC(=O)Nc1ccccc1)NO [Vorinostat, N-Hydroxy-N′-phenyl octanediamide] | – | ~40% |
